Assay results published in patent US9284345B2 (priority 2007, dated 2016).
Where “and” joins values, the source holds several entries; their conditions need not be identical. Equal entries are not always repeated.

Experiments:
androgen receptor = experiment: Antiandrogen / SARM / androgen profile observed on structural change; conditions: structure-activity observation in estratriene derivatives
Source text: Preferred positions on the steroid to this change in activities are 3, 4, 11β, 16 and 17α. […] Moreover, when we changed the 4-fluoro by a 4-chloro on EM-6583, we obtained a pure androgen (EM-5697). Similarly, when we increased the size of the chain at 17α-position on (1,4-phenylene as a spacer group), EM-8419 became a SARM. Again, when we changed the 4-fluoro by a 4-chloro on EM-8419, we obtained a pure androgen (EM-5313).
We also believed that a larger size increase could reverse the observed tendency (androgen to SARM or antiandrogen). Thus, it is not obvious to make good predictions of the biological activity of this compound family but some trends are observable.

[1] = test system: Shionogi mouse mammary carcinoma cells; experiment: cells; assay type: cell-based; conditions: for Ki: read-out: Shionogi cells Antiandrogenic activity Ki; for inhibition at 0.0003 µM: Mus musculus, read-out: % of inh of DHT at 10^−7 M (Basal = 100%)
Rat Androgen Receptor = biological target: T1, Rat Androgen Receptor (Rattus norvegicus, UniProt P15207); experiment: Androgen receptor binding assay (HAP, [3H]R1881), rat prostate cytosol
T1 construct: ventral prostates collected from 24 h-gonadectomized rats were homogenized in buffer A; from tissue; host or cells: rat ventral prostate cytosol (24 h-gonadectomized rats)
T1 sequence (P15207 1-902): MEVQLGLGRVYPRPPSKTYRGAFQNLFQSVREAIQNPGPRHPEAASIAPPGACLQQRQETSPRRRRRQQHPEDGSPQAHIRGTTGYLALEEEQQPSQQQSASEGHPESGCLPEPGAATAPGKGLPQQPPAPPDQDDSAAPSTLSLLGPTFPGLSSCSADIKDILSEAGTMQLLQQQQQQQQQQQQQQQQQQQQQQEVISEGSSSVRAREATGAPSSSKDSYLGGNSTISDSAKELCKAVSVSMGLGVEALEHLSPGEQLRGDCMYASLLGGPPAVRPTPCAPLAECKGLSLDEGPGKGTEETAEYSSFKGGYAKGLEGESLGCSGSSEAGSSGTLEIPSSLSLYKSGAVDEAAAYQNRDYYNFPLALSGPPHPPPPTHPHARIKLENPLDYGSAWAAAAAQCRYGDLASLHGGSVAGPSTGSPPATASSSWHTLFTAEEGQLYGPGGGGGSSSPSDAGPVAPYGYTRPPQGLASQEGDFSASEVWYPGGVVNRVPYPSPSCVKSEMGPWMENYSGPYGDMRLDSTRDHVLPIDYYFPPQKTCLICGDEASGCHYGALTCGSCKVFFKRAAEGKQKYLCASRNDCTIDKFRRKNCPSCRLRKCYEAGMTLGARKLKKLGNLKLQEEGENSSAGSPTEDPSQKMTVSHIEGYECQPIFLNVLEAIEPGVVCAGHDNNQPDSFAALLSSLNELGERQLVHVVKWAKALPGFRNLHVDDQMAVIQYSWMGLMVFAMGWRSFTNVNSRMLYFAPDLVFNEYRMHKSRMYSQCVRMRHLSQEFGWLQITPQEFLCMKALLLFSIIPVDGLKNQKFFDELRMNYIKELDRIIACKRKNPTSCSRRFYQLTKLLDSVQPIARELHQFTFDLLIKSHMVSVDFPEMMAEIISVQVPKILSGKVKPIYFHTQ
Experimental: On the morning of the binding assay, ventral prostates collected from 24 h-gonadectomized rats were homogenized in buffer A (1 g of tissue in 5 mL) and the homogenate was centrifuged as described above.
Androgen binding is measured using the hydroxylapatite (HAP) assay. In brief, the radioactive steroid [^3H]R1881 solubilized in ethanol is diluted with buffer B (10 mM Tris-HCl, 1.5 mM EDTA disodium salt, 10 mM α-monothioglycerol, pH 7.4). Aliquots of the cell or prostate cytosol preparation (0.1 ml) are then incubated with 5 nM [^3H]R1881 (0.1 ml, ˜100 000 cpm) in the presence or absence of the indicated concentrations of unlabeled compounds (0.1 ml, prepared in buffer B containing 30% ethanol) for 16-18 h at 0-4° C. Triamcinolone acetonide (TAC; 100 nM) is added to mask progesterone receptors. Unbound steroids are separated by incubation for 40 min at 0-4° C. with 0.3 ml HAP prepared in buffer P (50 mM Tris-HCl, 10 mM KH2PO4, pH 7.4). After incubation with HAP and 10 min of centrifugation at 1000×g, the pellet is washed 3 times with 1 ml of buffer P. Thereafter, the radioactivity is extracted from the pellet by incubation at room temperature for 60 min with 1 ml of ethanol. After centrifugation, the supernatant is decanted into a scintillation vial and the pellet is extracted again with ethanol. After the addition of scintillation liquid, the radioactivity is measured in a liquid scintillation counter.

Immature Rat CX + DHT = experiment: animal or person; assay type: in vivo; conditions: rat, in vivo; for In Vivo Anti-A Rat CX + DHT % change vs DHT (CX CONT = −100%) SV / In Vivo Anti-A Rat CX + DHT % change vs DHT (CX CONT = −100%) VP / In Vivo Anti-A Rat CX + DHT % change vs DHT (CX CONT = −100%) Bulbo: po
Human Androgen Receptor = biological target: T2, Human Androgen Receptor (Homo sapiens, UniProt P10275); assay type: binding
T2 construct: expressed in transfected cells; host or cells: HEK-293 cells stably transfected with the pCMVneo-hAR plasmid (G-418 selection); cytosol used
T2 sequence (P10275 1-920): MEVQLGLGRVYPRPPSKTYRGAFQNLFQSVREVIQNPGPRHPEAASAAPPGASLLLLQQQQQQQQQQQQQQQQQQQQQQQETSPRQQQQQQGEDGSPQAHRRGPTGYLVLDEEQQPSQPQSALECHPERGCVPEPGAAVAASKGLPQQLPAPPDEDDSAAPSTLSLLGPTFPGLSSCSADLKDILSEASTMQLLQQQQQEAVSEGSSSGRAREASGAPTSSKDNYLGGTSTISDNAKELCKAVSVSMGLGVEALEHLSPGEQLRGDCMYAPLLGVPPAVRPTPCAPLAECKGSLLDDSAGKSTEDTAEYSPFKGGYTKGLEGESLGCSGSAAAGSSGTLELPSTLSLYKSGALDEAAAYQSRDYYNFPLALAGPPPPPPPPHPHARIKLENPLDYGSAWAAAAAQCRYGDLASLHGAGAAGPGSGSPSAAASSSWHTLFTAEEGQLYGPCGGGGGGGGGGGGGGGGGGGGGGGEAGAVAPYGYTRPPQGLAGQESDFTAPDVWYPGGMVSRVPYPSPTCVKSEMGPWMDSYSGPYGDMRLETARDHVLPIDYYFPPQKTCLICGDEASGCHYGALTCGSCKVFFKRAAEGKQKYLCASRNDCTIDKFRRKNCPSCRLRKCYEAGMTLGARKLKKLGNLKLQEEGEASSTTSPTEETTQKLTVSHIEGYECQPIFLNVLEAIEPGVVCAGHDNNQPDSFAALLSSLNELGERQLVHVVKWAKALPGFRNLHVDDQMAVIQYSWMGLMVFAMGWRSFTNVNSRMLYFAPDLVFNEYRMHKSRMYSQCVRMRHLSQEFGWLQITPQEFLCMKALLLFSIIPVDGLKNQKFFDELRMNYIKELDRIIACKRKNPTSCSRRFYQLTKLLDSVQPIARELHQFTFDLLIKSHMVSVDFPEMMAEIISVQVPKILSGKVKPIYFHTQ

Immature Rat CX = conditions: for In Vivo Agonist % Change vs CX (DHT = +100%) SV / In Vivo Agonist % Change vs CX (DHT = +100%) VP: po
Intact Rat = experiment: In vivo activity in intact rat (organ and muscle weight)
in vivo = conditions: male, Sprague-Dawley, rat, plasma, po, 0.5 mg/animal
[2] = 0.1 mg/rat/os/ID, bulbocavernosus muscles weight
[3] = 0.1 mg/rat/os/ID, prostate weight

SMILES | activity profile (antiandrogen, SARM or androgen) (androgen receptor) | Shionogi cells Antiandrogenic activity Ki OH-Flu/Ki compound [1] | Ki [1] | Rat Androgen Receptor Binding RBA (%) R1881 = 100% (Rat Androgen Receptor) | Human Androgen Receptor Binding RBA (%) R1881 = 100% (Human Androgen Receptor) | % of stim of basal at 10^−7M (% over basal) [1] | % of stim of basal at 10^−7 M (DHT = 100%) [1] | inhibition at 0.0003 µM [1] | In Vivo Intact Rat % change vs Intact CONT (Intact CONT = +100%; CX CONT = 0%) Bulbo (Intact Rat; [2]) | In Vivo Intact Rat % change vs Intact CONT (Intact CONT = +100%; CX CONT = 0%) VP (Intact Rat; [3]) | In Vivo Intact Rat % change vs Intact CONT (Intact CONT = +100%; CX CONT = 0%) SZ (Intact Rat; rat, in vivo) | In Vivo Anti-A Rat CX + DHT % change vs DHT (CX CONT = −100%) SV (Immature Rat CX + DHT) | In Vivo Anti-A Rat CX + DHT % change vs DHT (CX CONT = −100%) VP (Immature Rat CX + DHT) | In Vivo Agonist Rat CX % change vs CX (DHT CONT = +100%) Bulbo (Immature Rat CX) | In Vivo Agonist Rat CX % change vs CX (DHT CONT = +100%) SV (Immature Rat CX) | In Vivo Agonist Rat CX % change vs CX (DHT CONT = +100%) VP (Immature Rat CX) | In Vivo Anti-A Rat CX + DHT % change vs DHT (CX CONT = −100%) Bulbo (Immature Rat CX + DHT) | other results
C[C@]12CCC3c4ccc(C#N)c(Cl)c4CCC3C1CC[C@@]2(O)Cc1ccc(-c2ccc[n+]([O-])c2)cc1 (stereo partly shown) [EM-5313] | pure androgen |  |  |  |  |  |  |  |  |  |  |  |  |  |  |  |  | 
Cc1c(C#N)ccc2c1CCC1C2CCC2(C)C1CCC2(O)Cc1cc[n+]([O-])cc1 (stereo not shown) [EM-5985] |  | 12 and 12 ± 4 | 0.9 ± 0.2 nM | 0.6% | 2.0 ± 0.3% |  |  |  |  |  |  |  |  |  |  |  |  | activity on the basal level of Shionogi cell proliferation [1]: none of these compounds has any activity; inhibition of DHT-stimulated seminal vesicle weight (Immature Rat CX + DHT): 84%; inhibition of DHT-stimulated ventral prostate weight (Immature Rat CX + DHT): 69%; potency on rat androgen-sensitive parameters relative to currently available antiandrogens (Immature Rat CX + DHT): approximately 5 times; affinity for the human compared to the rat androgen receptor (Human Androgen Receptor): approximately 3 fold; In Vivo Agonist % Change vs CX (DHT = +100%) SV (Immature Rat CX): [0] %; In Vivo Agonist % Change vs CX (DHT = +100%) VP (Immature Rat CX): [0] %
CC12CCC3c4ccc(C#N)c(F)c4CCC3C1CCC2(O)Cc1cc[n+]([O-])cc1F (stereo not shown) [EM-8454] |  | 2.7 | 2.2 nM | ~0.3% | ~1% |  |  |  |  |  |  |  |  |  |  |  |  | In Vivo Agonist % Change vs CX (DHT = +100%) SV (Immature Rat CX): 0%; In Vivo Agonist % Change vs CX (DHT = +100%) VP (Immature Rat CX): 0%
C[C@H]1C[C@@]2(C)C(CC[C@@]2(O)Cc2cc[n+]([O-])cc2)C2CCc3c(ccc(C#N)c3F)C21 (stereo partly shown) [EM-6583] | became a SARM |  |  |  | 21% | +138 ± 49% | +52 ± 27% | 46% | +145 ± 46% | +90 ± 2% | +71 ± 16% | −75 ± 5% | −46 ± 6% | +93 ± 15% | +17 ± 3% | +37 ± 7% |  | 
C[C@@]1(Cc2ccc(C#N)cc2)CC2C3CCc4c(C#N)cccc4C3CC[C@]2(C)[C@H]1O (stereo partly shown) [EM-3585] |  |  |  |  | 55% | +279% | +63% | 41% | +263 ± 64% | +82 ± 17% | +114 ± 23% | [−2 ± 15] % | [−26 ± 7] % | +74 ± 18% | +13 ± 4% | +20 ± 4% | [+67 ± 21] % | AUC(0-t) (in vivo): 2370 ± 253 ng·h/mL
CC1CC2(C)C(CCC2(O)Cc2cc[n+]([O-])cc2)C2CCc3c(ccc(C#N)c3Cl)C12 (stereo not shown) [EM-5697] | pure androgen |  |  |  |  |  |  |  |  |  |  |  |  |  |  |  |  | 
Cc1c[n+]([O-])ccc1CC1(O)CCC2C3CCc4c(ccc(C#N)c4F)C3CCC21C (stereo not shown) [EM-8505] |  | 4.4 | 4.2 nM | ~0.3% | ~0.3% |  |  |  |  |  |  |  |  |  |  |  |  | 
CC[C@H]1C[C@@]2(C)C(CC[C@@]2(O)Cc2ccncc2F)C2CCc3c(ccc(C#N)c3F)C21 (stereo partly shown) [EM-9016] |  |  |  |  | 2250% and 2250 ± 570% | +45% | +39% | 46% | +108 ± 21% | +53 ± 6% | +44 ± 6% | −39 ± 5% | −44 ± 3% | +66 ± 25% | +17 ± 1% | +13 ± 2% | +10 ± 9% | 
CC[C@H]1C[C@@]2(C)C(CC[C@@]2(O)Cc2ccncc2)C2CCc3c(ccc(C#N)c3F)C21 (stereo partly shown) [EM-8986] |  |  |  |  | 508% | +21% | +9% |  |  |  | +98 ± 7% | −25 ± 4% | −24 ± 3% | +149 ± 13% | +24 ± 3% | +35 ± 3% | +74 ± 13% | % of inh of DHT at 10^−7 M (Basal = 100%) ([1]; 0.0003 µM): +44%; In Vivo Intact Rat % change vs Intact CONT (Intact CONT = +100%; CX CONT = 0%) Bulbo (Intact Rat; rat, in vivo): +241 ± 27%; In Vivo Intact Rat % change vs Intact CONT (Intact CONT = +100%; CX CONT = 0%) VP (Intact Rat; rat, in vivo): +76 ± 11%
